In ChEMBL document CHEMBL1130467, “Synthesis and antitumor activity of novel cyclopropapyrroloindole(CPI) derivatives bearing methoxycarbonyl and trifluoromethyl groups” (Bioorg Med Chem Lett, 1997):
≈ marks a conversion by molar mass, not a printed value.

What was measured:
[1] = Percent tumor growth (TGI) inhibition against S180 murine Sarcoma cells( inoculated s.c. into male ICR mice on day 0), as compared to that of untreated group at 0.5 mg/kg i.v. compound dose on day 1; assay type: functional; details: Mus musculus, CCRF S-180, route intravenous, read-out: TGI
P388 [2] = assay: Concentration required to inhibit p388 murine leukemia cells by 50%; assay type: functional, cell-based; details: Mus musculus
P388 [3] = assay: Percent increase in life span of p388 murine leukemia cells (inoculated i.p. on day 0) as compared to that of untreated group at 0.125 mg/kg i.p. compound dose on day 1; assay type: functional; details: Mus musculus, P388, ip, route intraperitoneal
[4] = Percent tumor growth (TGI) inhibition against S180 murine Sarcoma cells( inoculated s.c. into male ICR mice on day 0), as compared to that of untreated group at 0.25 mg/kg i.v. compound dose on day 1; assay type: functional; details: Mus musculus, CCRF S-180, route intravenous, read-out: TGI
Colon 26 [5] = assay: Antitumor activity against colon 26 murine adenocarcinoma cells expressed as percent TGI (tumor growth inhibition) at 0.0625 mg/kg i.v. compound dose; assay type: functional; details: Mus musculus, route intravenous, read-out: TGI
HeLa = assay: Concentration required for 50% inhibition of human uterine Cervix Carcinoma cells (HeLaS3); assay type: functional, cell-based
Colon 26 [6] = assay: Antitumor activity against colon 26 murine adenocarcinoma cells expressed as percent TGI (tumor growth inhibition) at 0.250 mg/kg i.v. compound dose; assay type: functional; details: Mus musculus, route intravenous, read-out: TGI
Colon 26 [7] = assay: Antitumor activity against colon 26 murine adenocarcinoma cells expressed as % body weight change at 0.0625 mg/kg compound dose from day 7 to day 12; assay type: functional, Mus musculus
Colon 26 [8] = assay: Antitumor activity against colon 26 murine adenocarcinoma cells expressed as percent TGI 50 (tumor growth inhibition) at 0.500 mg/kg i.v. compound dose; assay type: functional, Mus musculus; details: dose 0.5 mg/kg; route intravenous
Colon 26 [9] = assay: Antitumor activity against colon 26 murine adenocarcinoma cells expressed as percent TGI (tumor growth inhibition) at 0.125 mg/kg i.v. compound dose; assay type: functional; details: Mus musculus, route intravenous, read-out: TGI
Colon 26 [10] = assay: Antitumor activity against colon 26 murine adenocarcinoma cells expressed as % body weight change at 0.500 mg/kg compound dose from day 7 to day 12; assay type: functional, Mus musculus; details: dose 0.5 mg/kg
Colon 26 [11] = assay: Antitumor activity against colon 26 murine adenocarcinoma cells expressed as maximum dose within 10% body weight loss at 0.500 mg/kg i.v. compound dose; assay type: functional, Mus musculus; details: dose 0.5 mg/kg; route intravenous
Colon 26 [12] = assay: Antitumor activity against colon 26 murine adenocarcinoma cells expressed as percent TGI (tumor growth inhibition) at 0.500 mg/kg i.v. compound dose; assay type: functional; details: Mus musculus, route intravenous, read-out: TGI
Colon 26 [13] = assay: Antitumor activity against colon 26 murine adenocarcinoma cells expressed as % body weight change at 0.125 mg/kg compound dose from day 7 to day 12; assay type: functional, Mus musculus
Colon 26 [14] = assay: Antitumor activity against colon 26 murine adenocarcinoma cells expressed as % body weight change at 0.250 mg/kg compound dose from day 7 to day 12; assay type: functional, Mus musculus; details: dose 0.25 mg/kg
Colon 26 [15] = assay: Antitumor activity against colon 26 murine adenocarcinoma cells expressed as percent TGI 50 (tumor growth inhibition) at 0.707 mg/kg i.v. compound dose; assay type: functional, Mus musculus; details: route intravenous
Colon 26 [16] = assay: Antitumor activity against colon 26 murine adenocarcinoma cells expressed as % body weight change at 0.707 mg/kg compound dose from day 7 to day 12; assay type: functional, Mus musculus
Colon 26 [17] = assay: Antitumor activity against colon 26 murine adenocarcinoma cells expressed as maximum dose within 10% body weight loss at 0.707 mg/kg i.v. compound dose; assay type: functional, Mus musculus; details: route intravenous
Colon 26 [18] = assay: Antitumor activity against colon 26 murine adenocarcinoma cells expressed as percent TGI (tumor growth inhibition) at 0.707 mg/kg i.v. compound dose; assay type: functional; details: Mus musculus, route intravenous, read-out: TGI
P388 [19] = assay: Percent increase in life span of p388 murine leukemia cells (inoculated i.p. on day 0) as compared to that of untreated group at 0.25 mg/kg i.p. compound dose on day 1; cured mice =2/2; assay type: functional; details: Mus musculus, P388, ip, route intraperitoneal
Colon 26 [20] = assay: Antitumor activity against colon 26 murine adenocarcinoma cells expressed as percent TGI (tumor growth inhibition) at 0.177 mg/kg i.v. compound dose; assay type: functional; details: Mus musculus, route intravenous, read-out: TGI
Colon 26 [21] = assay: Antitumor activity against colon 26 murine adenocarcinoma cells expressed as percent TGI (tumor growth inhibition) at 0.0313 mg/kg i.v. compound dose; assay type: functional; details: Mus musculus, route intravenous, read-out: TGI
Colon 26 [22] = assay: Antitumor activity against colon 26 murine adenocarcinoma cells expressed as percent TGI 50 (tumor growth inhibition) at 0.177 mg/kg i.v. compound dose; assay type: functional, Mus musculus; details: route intravenous
Colon 26 [23] = assay: Antitumor activity against colon 26 murine adenocarcinoma cells expressed as % body weight change at 0.177 mg/kg i.v. compound dose from day 7 to day 12; assay type: functional, Mus musculus; details: route intravenous
Colon 26 [24] = assay: Antitumor activity against colon 26 murine adenocarcinoma cells expressed as maximum dose within 10% body weight loss at 0.177 mg/kg i.v. compound dose; assay type: functional, Mus musculus; details: route intravenous
Colon 26 [25] = assay: Antitumor activity against colon 26 murine adenocarcinoma cells expressed as % body weight change at 0.0313 mg/kg compound dose from day 7 to day 12; assay type: functional, Mus musculus
P388 [26] = assay: Percent increase in life span of p388 murine leukemia cells (inoculated i.p. on day 0) as compared to that of untreated group at 0.25 mg/kg i.p. compound dose on day 1; cured mice= 2/2; assay type: functional; details: Mus musculus, P388, ip, route intraperitoneal

COC(=O)c1c(C(F)(F)F)[nH]c2c1C13CC1CN(C(=O)c1cc4cc(OC)c(OC)c(OC)c4[nH]1)C3=CC2=O (racemic)
inhibition in vivo at 0.5 mg/kg [1]: 92%
IC50 (P388 [2]): 0.24 ng/mL (≈ 0.44 nM)
ILS at 0.125 mg/kg (P388 [3]): 94%

COC(=O)c1c(C(F)(F)F)[nH]c2c1C13CC1CN(C(=O)c1cc4cc(OC)ccc4[nH]1)C3=CC2=O (racemic)
inhibition in vivo at 0.25 mg/kg [4]: 54%
IC50 (P388 [2]): 0.23 ng/mL (≈ 0.474 nM)
ILS at 0.125 mg/kg (P388 [3]): 69%

COC(=O)c1c(C(F)(F)F)[nH]c2c(OC(=O)N3CCN(C)CC3)cc3c(c12)[C@H](CBr)CN3C(=O)c1cc2cc(OC)c(OC)c(OC)c2[nH]1
inhibition in vivo at 0.0625 mg/kg (Colon 26 [5]): 58%
IC50 (HeLa): 18.8 ng/mL (≈ 25 nM)
inhibition in vivo at 0.25 mg/kg (Colon 26 [6]): 90%
Change in body weight (Colon 26 [7]): 2%
TGI50 (Colon 26 [8]): 0.0429
inhibition in vivo at 0.125 mg/kg (Colon 26 [9]): 76%
Change in body weight (Colon 26 [10]): 8%
MTD/ TGI50 (Colon 26 [11]): 11.7
inhibition in vivo at 0.5 mg/kg (Colon 26 [12]): 93%
Change in body weight (Colon 26 [13]): 1%
Change in body weight (Colon 26 [14]): 5%

COC(=O)c1c(C)[nH]c2c(OC(=O)N3CCN(C)CC3)cc3c(c12)[C@H](CBr)CN3C(=O)c1cc2cc(OC)c(OC)c(OC)c2[nH]1 [PIBROZELESIN]
TGI50 (Colon 26 [15]): 0.209 mg/kg
IC50 (HeLa): 18.1 ng/mL (≈ 25.9 nM)
inhibition in vivo at 0.25 mg/kg (Colon 26 [6]): 62%
Change in body weight (Colon 26 [16]): -9%
inhibition in vivo at 0.125 mg/kg (Colon 26 [9]): 26%
Change in body weight (Colon 26 [10]): -1%
MTD/ TGI50 (Colon 26 [17]): 3.4
inhibition in vivo at 0.5 mg/kg (Colon 26 [12]): 85%
inhibition in vivo at 0.707 mg/kg (Colon 26 [18]): 90%
Change in body weight (Colon 26 [13]): 1%
Change in body weight (Colon 26 [14]): -2%

COC(=O)c1c(C(F)(F)F)[nH]c2c1C13CC1CN(C(=O)c1cc4cc(NC(=O)c5cc6ccccc6o5)ccc4[nH]1)C3=CC2=O (racemic)
inhibition in vivo at 0.0625 mg/kg (Colon 26 [5]): 68%
IC50 (HeLa): 0.365 ng/mL (≈ 0.594 nM)
Change in body weight (Colon 26 [7]): -3%
ILS at 0.25 mg/kg (P388 [19]): 2%
inhibition in vivo at 0.177 mg/kg (Colon 26 [20]): 85%
inhibition in vivo at 0.125 mg/kg (Colon 26 [9]): 87%
inhibition in vivo at 0.0313 mg/kg (Colon 26 [21]): 39%
TGI50 (Colon 26 [22]): 0.041
Change in body weight (Colon 26 [23]): -3%
inhibition in vivo at 0.25 mg/kg [4]: 83%
IC50 (P388 [2]): 0.53 ng/mL (≈ 0.862 nM)
MTD/ TGI50 (Colon 26 [24]): 4.3
Change in body weight (Colon 26 [13]): -4%
Change in body weight (Colon 26 [25]): 0%

COC(=O)c1[nH]c2c(c1C(=O)OC)C13CC1CN(C(=O)c1cc4cc(NC(=O)c5cc6ccccc6o5)ccc4[nH]1)C3=CC2=O (racemic)
inhibition in vivo at 0.5 mg/kg [1]: 26%
IC50 (P388 [2]): 0.66 ng/mL (≈ 1.09 nM)
ILS at 0.125 mg/kg (P388 [3]): 79%

COC(=O)c1c(C(F)(F)F)[nH]c2c1C13CC1CN(C(=O)c1cc4cc(NC(=O)c5cc6ccccc6[nH]5)ccc4[nH]1)C3=CC2=O (racemic)
ILS at 0.25 mg/kg (P388 [26]): 2%
inhibition in vivo at 0.25 mg/kg [4]: 84%
IC50 (P388 [2]): 0.86 ng/mL (≈ 1.4 nM)

COC(=O)c1c(C)[nH]c2c1[C@@]13C[C@@H]1CN(C(=O)c1cc4cc(OC)c(OC)c(OC)c4[nH]1)C3=CC2=O (racemic)
inhibition in vivo at 0.5 mg/kg [1]: 81%
IC50 (P388 [2]): 0.34 ng/mL (≈ 0.692 nM)
ILS at 0.125 mg/kg (P388 [3]): 80%

COC(=O)c1[nH]c2c(c1C(=O)OC)C13CC1CN(C(=O)c1cc4cc(NC(=O)c5cc6ccccc6[nH]5)ccc4[nH]1)C3=CC2=O (racemic)
inhibition in vivo at 0.5 mg/kg [1]: 44%
IC50 (P388 [2]): 0.31 ng/mL (≈ 0.514 nM)
ILS at 0.125 mg/kg (P388 [3]): 102%
